In patent publication US20130029981A1, “COMPOUNDS, COMPOSITIONS, AND METHODS FOR CONTROLLING BIOFILMS” (Katholieke Universiteit Leuven, priority 2009, published 2013):
Where two headings read alike, the source gives them in different places.

Key:
[1] = tested on: Pseudomonas aeruginosa PA14; experiment: Static peg assay for prevention of biofilm formation (Calgary device, crystal violet); assay type: cell-based; details: 25° C.
Method: (§1) Evaluation of the biofilm inhibitory activity of some substituted 2-amino-1H-imidazoles of the invention was carried out by growing up biofilms of S. Typhimurium ATCC14028 or SL1344 or Pseudomonas aeruginosa PA14 in the presence of different concentrations (1/2 dilution series) of biofilm inhibitors, by using the Calgary biofilm device. After an incubation period of 24 hours at 25° C. or 37° C. or 48 hours at 16° C. the biofilms were visualized by crystal violet staining. In the next step the stain was extracted from the biofilm with 30% acetic acid. The absorbance of the resolubilized stain at 570 nm is a measure of the amount of biofilm formed.
The device used for Pseudomonas aeruginosa biofilm formation is the same platform carrying polystyrene pegs as described above for Salmonella Typhimurium.
Two-fold serial dilutions of the compounds in 100 μl liquid broth per well were prepared in the microtiter plate. Subsequently, an overnight culture of P. aeruginosa PA14 (grown up in TSB medium) was diluted 1:100 into liquid broth and 100 μl was added to each well of the microtiter plates, resulting in a total amount of 200 μl medium per well. The pegged lid was placed on the microtiter plate and the plate was incubated for 24 hours at 25° C., 30° C. or 37° C. without shaking. During this incubation period biofilms were formed on the surface of the pegs. The liquid broth used for the tests at 25° C. was TSB 1/20. The tests at 37° C. were performed in CFA and/or LBNS broth. During incubation at 30° C. and 37° C. the plates were placed in a humidity controlled container to prevent evaporation of the growth medium. Quantification of biofilm formation was performed similarly as described previously for the S. Typhimurium biofilm assays.
as §1, with “imidazo[1,2-a]pyrimidinium bromide salts” for “2-amino-1H-imidazoles”
as §1, with “substituted imidazo[1,2-a]-pyrimidinium bromide and perchlorate salts produced according to examples 3 and 5” for “substituted 2-amino-1H-imidazoles of the invention”, “C.” for “C. or 37° C. or 48 hours at 16° C.”, “nm was taken as” for “nm is”

S. Typhimurium ATCC14028 = experiment: as above; assay type: cell-based, Salmonella Typhimurium; details: 25° C.
Method: as §1
In examples 2 and 3, the following materials and methods were used.
The device used for biofilm formation is a platform carrying 96 polystyrene pegs (Nunc no. 445497) that fits as a microtiter plate lid with a peg hanging into each microtiter plate well (Nunc no. 269789). Biofilm formation assays were carried out at 16° C., 25° C. and 37° C.
For biofilm assays at 16° C. and 25° C., two-fold serial dilutions of the compounds in 100 μl liquid TSB 1/20 broth per well were prepared in the microtiter plate. Subsequently, an overnight culture of S. Typhimurium ATCC14028 or SL1344 (grown up in LB medium) was diluted 1:100 into TSB 1/20 broth and 100 μl (ca. 10^6 cells) was added to each well of the microtiter plates, resulting in a total amount of 200 μl medium per well. The pegged lid was placed on the microtiter plate and the plate was incubated for 48 hours at 16° C. or for 24 hours at 25° C. without shaking. During this incubation period biofilms were formed on the surface of the pegs. In case of the assay at 16° C., after 24 hours the lid was transferred into a new plate with medium and the specific molecules used for testing. […] For quantification of biofilm formation, the pegs were washed once in 200 μl phosphate buffered saline (PBS). The remaining attached bacteria were stained for 30 minutes with 200 μl 0.1% (w/v) crystal violet in an isopropanol/methanol/PBS solution (v/v 1:1:18). Excess stain was rinsed off by placing the pegs in a 96-well plate filled with 200 μl distilled water per well. After the pegs were air dried (30 min), the dye bound to the adherent cells was extracted with 30% glacial acetic acid (200 μl). The OD570 of each well was measured using the VERSAmax microtiter plate reader. The IC50 value for each compound was determined from concentration gradients in two or three independent experiments (with 2 or 3 repeats per experiment), by using the GraphPad software of Prism.
For biofilm assays at 37° C., two-fold serial dilutions of the compounds in 50 μl liquid CFA broth per well were prepared in the microtiter plate. Subsequently, an overnight culture of S. Typhimurium ATCC 14028 was diluted 1:100 into CFA broth and 100 μl (ca. 10^6 cells) was added to each well of the microtiter plates, resulting in a total amount of 150 μl medium per well. The pegged lid was placed on the microtiter plate and the plate was incubated for 24 hours at 37° C. without shaking. During incubation the plates were placed in a humidity controlled container to prevent evaporation of the growth medium. Quantification of biofilm formation was performed similarly as described above for the assays at 16° C. and 25° C.
as §1, with “imidazo[1,2-a]pyrimidinium bromide salts” for “2-amino-1H-imidazoles”

[2] = Table 16, read-out: P. aeruginosa IC50 (biofilm formation)
[3] = Table 16, read-out: S. Typhimurium IC50 (biofilm formation)
[4] = 24 hours, Table 15, read-out: (2) IC50 (biofilm inhibition)
[5] = 24 hours, Table 15, read-out: (1) IC50 (biofilm inhibition)
[6] = strain not given, read-out: IC(50), preventive activity against S. typhimurium biofilms

SMILES | IC50 [1, 2] [µM] | IC50 (S. Typhimurium ATCC14028; [3]) [µM] | IC50 [1, 4] [µM] | IC50 (S. Typhimurium ATCC14028; [5]) [µM] | IC50 (S. Typhimurium ATCC14028; [6]) [µM]
CN1c2nccc[n+]2CC1(O)c1ccccc1 (racemic) [Compound 1] | 212 | > 800 | – | – | –
CC(C)N1c2nccc[n+]2CC1(O)c1ccccc1 (racemic) [Compound 2] | > 400 | 540 | – | – | –
CCCCN1c2nccc[n+]2CC1(O)c1ccccc1 (racemic) [Compound 3] | > 400 | 410 | – | – | –
CC(C)CN1c2nccc[n+]2CC1(O)c1ccccc1 (racemic) [Compound 4] | 289 | 131 | – | – | –
CCCCCN1c2nccc[n+]2CC1(O)c1ccccc1 (racemic) [Compound 5] | 565 | 278 | – | – | –
CCCCCCN1c2nccc[n+]2CC1(O)c1ccccc1 (racemic) [Compound 6] | 406 | 102 | 3.13 | 102 | –
CCCCCCCN1c2nccc[n+]2CC1(O)c1ccccc1 (racemic) [Compound 7] | 24.8 | 23.4 | 5.89 | 23.4 | –
CCCCCCCCN1c2nccc[n+]2CC1(O)c1ccccc1 (racemic) [Compound 8] | 18.9 | 9.8 | 11.2 | 9.77 | –
CCCCCCCCCN1c2nccc[n+]2CC1(O)c1ccccc1 (racemic) [Compound 9] | 55.7 | 8.3 | 4.85 | 8.26 | –
CCCCCCCCCCN1c2nccc[n+]2CC1(O)c1ccccc1 (racemic) [Compound 10] | 47 | 15 | 3.95 | 15 | –
CCCCCCCCCCCN1c2nccc[n+]2CC1(O)c1ccccc1 (racemic) [Compound 11] | > 800 | 24.6 | 28.6 | 24.6 | –
CCCCCCCCCCCCN1c2nccc[n+]2CC1(O)c1ccccc1 (racemic) [Compound 12] | > 800 | 27.5 | 9.63 | 27.5 | –
CCCCCCCCCCCCCN1c2nccc[n+]2CC1(O)c1ccccc1 (racemic) [Compound 13] | > 800 | 81.6 | 17 | 81.6 | –
CCCCCCCCCCCCCCN1c2nccc[n+]2CC1(O)c1ccccc1 (racemic) [Compound 14] | > 800 | 180 | – | 180 | –
CCCCN1c2nccc[n+]2CC1(O)c1ccc(Cl)cc1 (racemic) [Compound 16] | 24.9 | 29.7 | – | – | –
CC(C)CN1c2nccc[n+]2CC1(O)c1ccc(Cl)cc1 (racemic) [Compound 17] | 83.4 | 31.4 | – | – | –
CCCCCN1c2nccc[n+]2CC1(O)c1ccc(Cl)cc1 (racemic) [Compound 18] | 164 | 32.6 | – | – | –
CCCCCCN1c2nccc[n+]2CC1(O)c1ccc(Cl)cc1 (racemic) [Compound 19] | 79.8 | 13.7 | 20.2 | 13.7 | –
CC(C)(C)c1ccc(-c2cn(CCCNc3ncc(-c4ccc(Cl)c(Cl)c4)[nH]3)nn2)cc1 [R3=3,4-diClPh; R4=H; R9=p(t-Bu)Ph; n=3] | – | – | – | – | 17.8
COc1ccc(-c2cn(CCNc3ncc(-c4ccc(Cl)c(Cl)c4)[nH]3)nn2)cc1 [R3=3,4-diClPh; R4=H; R9=p-MeOPh; n=2] | – | – | – | – | > 800

SMILES | IC50 [1, 2] [µM] | IC50 (S. Typhimurium ATCC14028; [3]) [µM] | IC50 [1, 4] [µM] | IC50 (S. Typhimurium ATCC14028; [5]) [µM] | IC50 (S. Typhimurium ATCC14028; [6]) [µM]
CCCc1cn(CCNc2ncc(-c3ccc(Cl)c(Cl)c3)[nH]2)nn1 [R3=3,4-diClPh; R4=H; R9=propyl; n=2] | – | – | – | – | 35.6
CCCc1cn(CCCNc2ncc(-c3ccc(Cl)c(Cl)c3)[nH]2)nn1 [R3=3,4-diClPh; R4=H; R9=propyl; n=3] | – | – | – | – | 31.8
Clc1ccc(-c2cnc(NCCCn3cc(-c4ccsc4)nn3)[nH]2)cc1Cl [R3=3,4-diClPh; R4=H; R9=thiofuran; n=3] | – | – | – | – | 2
CC(C)(N)c1cn(CCCNc2ncc(-c3ccc(Br)cc3)[nH]2)nn1 [R3=4-BrPh; R4=H; R9=C(CH3)2(NH2); n=3] | – | – | – | – | 30.9
Brc1ccc(-c2cnc(NCCn3cc(C4CCCCC4)nn3)[nH]2)cc1 [R3=4-BrPh; R4=H; R9=c-hexyl; n=2] | – | – | – | – | 8.4
Brc1ccc(-c2cnc(NCCn3cc(C4CC4)nn3)[nH]2)cc1 [R3=4-BrPh; R4=H; R9=c-propyl; n=2] | – | – | – | – | 2.02
CCCCCCCc1cn(CCNc2ncc(-c3ccc(Br)cc3)[nH]2)nn1 [R3=4-BrPh; R4=H; R9=heptyl; n=2] | – | – | – | – | 189
Cc1ccc(-c2cn(CCNc3ncc(-c4ccc(Br)cc4)[nH]3)nn2)cc1 [R3=4-BrPh; R4=H; R9=p-MePh; n=2] | – | – | – | – | > 800
CCCCCc1ccc(-c2cn(CCCNc3ncc(-c4ccc(Br)cc4)[nH]3)nn2)cc1 [R3=4-BrPh; R4=H; R9=p-PenPh; n=3] | – | – | – | – | > 800
COc1ccc(-c2cn(CCNc3ncc(-c4ccc(Br)cc4)[nH]3)nn2)cc1 [R3=4-BrPh; R4=H; R9=pMeOPh; n=2] | – | – | – | – | 91.2
CCCc1cn(CCNc2ncc(-c3ccc(Br)cc3)[nH]2)nn1 [R3=4-BrPh; R4=H; R9=propyl; n=2] | – | – | – | – | 25.3
CCCc1cn(CCCNc2ncc(-c3ccc(Br)cc3)[nH]2)nn1 [R3=4-BrPh; R4=H; R9=propyl; n=3] | – | – | – | – | 35.3
Fc1ccc(-c2cnc(NCCn3cc(C4CCCC4)nn3)[nH]2)cc1 [R3=4-FPh; R4=H; R9=c-pentyl; n=2] | – | – | – | – | 128
Fc1ccc(-c2cnc(NCCn3cc(C4CC4)nn3)[nH]2)cc1 [R3=4-FPh; R4=H; R9=c-propyl; n=2] | – | – | – | – | 93.3
CC(C)(C)c1cn(CCNc2ncc(C(c3ccccc3)c3ccccc3)[nH]2)nn1 [R3=CHPh2; R4=H; R9=t-Butyl; n=2] | – | – | – | – | 30.9
c1ccc(-c2cn(CCNc3ncc(-c4ccccc4)[nH]3)nn2)cc1 [R3=Ph; R4=H; R9=Phenyl; n=2] | – | – | – | – | 36.5
c1ccc(-c2cn(CCCNc3ncc(-c4ccccc4)[nH]3)nn2)cc1 [R3=Ph; R4=H; R9=phenyl; n=3] | – | – | – | – | 40
CCCCCc1cn(CCNc2nc(-c3ccc(C)cc3)c(-c3ccc(Cl)cc3)[nH]2)nn1 [R3=p-ClPh; R4=p-MePh; R9=Pentyl; n=2] | – | – | – | – | 371
Cc1ccc(-c2nc(NCCn3cc(C4CCCC4)nn3)[nH]c2-c2ccc(Cl)cc2)cc1 [R3=p-ClPh; R4=p-MePh; R9=c-Pentyl; n=2] | – | – | – | – | 6.5
